Experimental data reported in patent US8927547B2, “Pyrimidine derivatives” (Noviga Research AB, priority 2010, dated 2015).

Tested on: CCRF-CEM cancer cells - leukaemia
Test: Fluorometric Microculture Cytotoxicity Assay (FMCA), CCRF-CEM
Format: cell-based
Conditions: Homo sapiens, 72 h incubation
Description: The Fluorometric Microculture Cytotoxicity Assay, FMCA, is a three day non-clonogenic microplate-based cell viability assay used for measurement of the cytotoxic and/or cytostatic effect of compounds in vitro (Lindhagen, E., et al. Nat Protoc, 2008. 3(8): p. 1364-9). FMCA (Larsson, R. and P. Nygren, Anticancer Res, 1989. 9(4): p. 1111-9) represents a valuable method to measure cytotoxicity in a number of cell types, both cell lines and primary cells from patients (Larsson, R., et al., Int J Cancer, 1992. 50(2): p. 177-85; Fridborg, H., et al., Eur J Cancer, 1999. 35(3): p. 424-32; Dhar, S., et al., Br J Cancer, 1996. 74(6): p. 888-96).
FMCA is based on the principle that fluorescein diacetate (FDA) is converted to the fluorescent probe fluorescein by esterases in the plasma membranes of living cells. For experiments, 96 or 384-well microplates are prepared with compounds and stored at −70° C. until use. Cells are then seeded into the drug-prepared plates and placed in an incubator for 72 h. On the last day of incubation, the plates are washed and a buffer containing FDA is added and incubated with the cells for 45 minutes. Finally the fluorescence per well is measured in a fluorometer and a Survival Index % (SI) for each compound-treated well is calculated with the equation: Compound-treated cells minus blank divided by control cells minus blank. A high SI-value indicates a large percentage of living cells and vice versa.
In subsequent experiments, compounds were tested, along with kinase inhibitors (dasatinib, pazopanib, sorafenib, and sunitinib) as described above. Initially, the acute lymphoblastic leukaemia cell line CCRF-CEM (see e.g. Foley G E, et al. Cancer 1965, 18, 522-529) was used throughout. In the assay plates, medium was added to six empty wells (blank wells) and wells were filled with PBS and cell suspension and served as control wells. SI-values were then calculated for each compound-treated well as described above. All experiments were conducted twice and a new batch of plates was prepared for each experiment.
For dose-response experiments, 384-well plates were prepared as follows:
Compounds of the invention as well as kinase inhibitors sorafenib, sunitinib, dasatinib, and pazopanib (reference compounds) were diluted with PBS to a concentration which was ten-times higher than the desired starting concentration. Then, a Biomek 2000 liquid handling system was employed to serially dilute the compounds in a deep-well 384-well plate. From this plate, assay plates containing 5 μl compound per well were prepared with the Biomek 2000. Certain compounds precipitated when diluted with PBS, and these compounds were therefore prepared in a 96-well plate manually as described above using culture medium RPMI 1640 instead of PBS.
The compounds were also tested at five concentrations, with five times serial dilution on the following cell types: CCRF-CEM, hTERT-RPE1 (normal retinal epithelial cells), hRPTEpiC (normal renal cells) and PBMC (peripheral blood mononuclear cells). Each experiment was performed three times, except for PBMC and hRPTEpiC, which were performed twice. SI-values were calculated, graphs were plotted using GraphPadPrism 5.0 (GraphPad Software Inc. La Jolla, Calif.) and EC50-values for each cell type and compound were determined from the curves.

| SMILES | EC50 |
| --- | --- |
| Cc1cc2cc(CNc3nccc(Nc4ccc5[nH]c(C)cc5c4)n3)ccc2[nH]1 [Example 63, N^4-(2-methyl-1H-indol-5-yl)-N^2-(2-methyl-1H-indol-5-ylmethyl)pyrimidine-2,4-diamine] | 0.59 µM |
| c1cc(Nc2nccc(NCc3ccc4cc[nH]c4c3)n2)c2cc[nH]c2c1 [Example 20, N^4-(1H-indol-6-ylmethyl)-N^2-(1H-indol-4-yl)pyrimidine-2,4-diamine] | 1.01 µM |
| CNC(=O)c1cc(Oc2ccc(NC(=O)Nc3ccc(Cl)c(C(F)(F)F)c3)cc2)ccn1 [Ref. 1, sorafenib, reference compound] | 8.3 µM |
| Oc1ccc2[nH]cc(CCNc3ccnc(NCc4ccc5[nH]ccc5c4)n3)c2c1 [Example 26, 3-{2-[2-(1H-indol-5-ylmethylamino)-pyrimidin-4-ylamino]ethyl}-1H-indol-5-ol] | 7.01 µM |
| c1ccc2c(CCNc3nccc(NCc4ccc5[nH]ccc5c4)n3)c[nH]c2c1 [Example 9, N^2-[2-(1H-indol-3-yl)ethyl]-N^4-(1H-indol-5-ylmethyl)pyrimidine-2,4-diamine] | 8.73 µM |
| c1cc(Nc2nccc(NCc3ccc4[nH]ncc4c3)n2)c2cc[nH]c2c1 [Example 18, N^2-(1H-indol-4-yl)-N^4-(1H-indazol-5-ylmethyl)pyrimidine-2,4-diamine] | 0.71 µM |
